Measured values: ChEMBL document CHEMBL2062394, “Azide-alkyne cycloaddition en route to novel 1H-1,2,3-triazole tethered isatin conjugates with in vitro cytotoxic evaluation” (Eur J Med Chem, 2012)

Tests used:
PC-3 [1] = assay: Growth inhibition of human PC3 cells after 48 hrs by SRB assay; format: functional, cell-based; conditions: for IC50: PC-3, 48 h
THP-1 [2] = assay: Ratio of 5-fluorouracil IC50 to compound IC50 for human THP1 cells; format: functional
Caco-2 [3] = assay: Growth inhibition of human Caco2 cells at 50 uM after 48 hrs by SRB assay; format: functional; conditions: Caco-2, 48 h, read-out: GI
PC-3 [4] = assay: Growth inhibition of human PC3 cells at 10 uM after 48 hrs by SRB assay; format: functional; conditions: PC-3, 48 h, read-out: GI
A549 [5] = assay: Growth inhibition of human A549 cells at 10 uM after 48 hrs by SRB assay; format: functional; conditions: A549, 48 h, read-out: GI
A549 [6] = assay: Growth inhibition of human A549 cells at 100 uM after 48 hrs by SRB assay; format: functional; conditions: A549, 48 h, read-out: GI
PC-3 [7] = assay: Growth inhibition of human PC3 cells at 100 uM after 48 hrs by SRB assay; format: functional; conditions: PC-3, 48 h, read-out: GI
Caco-2 [8] = assay: Growth inhibition of human Caco2 cells after 48 hrs by SRB assay; format: functional, cell-based; conditions: for IC50: Caco-2, 48 h
THP-1 [9] = assay: Growth inhibition of human THP1 cells at 50 uM after 48 hrs by SRB assay; format: functional; conditions: THP-1, 48 h, read-out: GI
Caco-2 [10] = assay: Growth inhibition of human Caco2 cells at 10 uM after 48 hrs by SRB assay; format: functional; conditions: Caco-2, 48 h, read-out: GI
THP-1 [11] = assay: Growth inhibition of human THP1 cells at 100 uM after 48 hrs by SRB assay; format: functional; conditions: THP-1, 48 h, read-out: GI
THP-1 [12] = assay: Growth inhibition of human THP1 cells after 48 hrs by SRB assay; format: functional, cell-based; conditions: for IC50: THP-1, 48 h
THP-1 [13] = assay: Growth inhibition of human THP1 cells at 10 uM after 48 hrs by SRB assay; format: functional; conditions: THP-1, 48 h, read-out: GI
Caco-2 [14] = assay: Growth inhibition of human Caco2 cells at 100 uM after 48 hrs by SRB assay; format: functional; conditions: Caco-2, 48 h, read-out: GI
PC-3 [15] = assay: Growth inhibition of human PC3 cells at 50 uM after 48 hrs by SRB assay; format: functional; conditions: PC-3, 48 h, read-out: GI
A549 [16] = assay: Growth inhibition of human A549 cells at 50 uM after 48 hrs by SRB assay; format: functional; conditions: A549, 48 h, read-out: GI
A549 [17] = assay: Growth inhibition of human A549 cells after 48 hrs by SRB assay; format: functional, cell-based; conditions: for IC50: A549, 48 h
PC-3 [18] = assay: Growth inhibition of human PC3 cells at 1 uM after 48 hrs by SRB assay; format: functional; conditions: PC-3, 48 h, read-out: GI
A549 [19] = assay: Growth inhibition of human A549 cells at 1 uM after 48 hrs by SRB assay; format: functional; conditions: A549, 48 h, read-out: GI
THP-1 [20] = assay: Growth inhibition of human THP1 cells at 20 uM after 48 hrs by SRB assay; format: functional; conditions: THP-1, 48 h, read-out: GI
Caco-2 [21] = assay: Growth inhibition of human Caco2 cells at 20 uM after 48 hrs by SRB assay; format: functional; conditions: Caco-2, 48 h, read-out: GI

| SMILES | growth inhibition (GI) (PC-3 [1]) | IC50 (PC-3 [1]) | Ratio IC50 (THP-1 [2]) | inhibition of growth at 50 µM (Caco-2 [3]) | inhibition of growth at 10 µM (PC-3 [4]) | inhibition of growth at 10 µM (A549 [5]) | inhibition of growth at 100 µM (A549 [6]) | inhibition of growth at 100 µM (PC-3 [7]) | growth inhibition (GI) (Caco-2 [8]) | IC50 (Caco-2 [8]) | inhibition of growth at 50 µM (THP-1 [9]) | inhibition of growth at 10 µM (Caco-2 [10]) | inhibition of growth at 100 µM (THP-1 [11]) | growth inhibition (GI) (THP-1 [12]) | IC50 (THP-1 [12]) | inhibition of growth at 10 µM (THP-1 [13]) | inhibition of growth at 100 µM (Caco-2 [14]) | inhibition of growth at 50 µM (PC-3 [15]) | inhibition of growth at 50 µM (A549 [16]) | growth inhibition (GI) (A549 [17]) | other results |
| --- | --- | --- | --- | --- | --- | --- | --- | --- | --- | --- | --- | --- | --- | --- | --- | --- | --- | --- | --- | --- | --- |
| O=C1C(=O)N(CCn2cc(CN3C(=O)C(=O)c4ccccc43)nn2)c2ccccc21 | Dose-dependent effect | < 1 µM | 2 | 20% | 99% | 96% | 99% | 100% | Dose-dependent effect | > 100 µM | 100% | 9% | 100% | Dose-dependent effect | < 1 µM | 100% | 36% | 100% | 98% | Dose-dependent effect | IC50 (A549 [17]): < 1 µM |
| CO[C@@]12[C@H](COC(N)=O)C3=C(C(=O)C(C)=C(N)C3=O)N1C[C@@H]1N[C@@H]12 [MITOMYCIN] |  |  |  |  |  |  |  |  |  |  |  |  |  |  |  |  |  |  |  |  | inhibition of growth at 1 µM (PC-3 [18]): 60% |
| Cc1ccc2c(c1)C(=O)C(=O)N2Cc1cn(CCN2C(=O)C(=O)c3cc(Cl)ccc32)nn1 | Dose-dependent effect | 32.6 µM | 2 | 52% | 36% | 81% | 98% | 70% | Dose-dependent effect | 44.9 µM | 91% | 39% | 92% | Dose-dependent effect | < 1 µM | 71% | 56% | 55% | 95% | Dose-dependent effect | IC50 (A549 [17]): < 1 µM |
| Cc1ccc2c(c1)C(=O)C(=O)N2Cc1cn(CCN2C(=O)C(=O)c3ccccc32)nn1 | Dose-dependent effect | 3.03 µM | 2 | 0% | 63% | 35% | 100% | 100% | Dose-dependent effect | > 100 µM | 100% | 0% | 100% | Dose-dependent effect | < 1 µM | 89% | 17% | 100% | 99% | Dose-dependent effect | IC50 (A549 [17]): 18.4 µM |
| CC(=O)O[C@H]1C(=O)[C@@]2(C)[C@H]([C@H](OC(=O)c3ccccc3)[C@]3(O)C[C@H](OC(=O)[C@H](O)[C@@H](NC(=O)c4ccccc4)c4ccccc4)C(C)=C1C3(C)C)[C@]1(OC(C)=O)CO[C@@H]1C[C@@H]2O [PACLITAXEL] |  |  |  |  |  |  |  |  |  |  |  |  |  |  |  |  |  |  |  |  | inhibition of growth at 1 µM (A549 [19]): 69% |
| O=c1[nH]cc(F)c(=O)[nH]1 [FLUOROURACIL] |  |  |  |  |  |  |  |  |  |  |  |  |  |  |  |  |  |  |  |  | inhibition of growth at 20 µM (THP-1 [20]): 70%; inhibition of growth at 20 µM (Caco-2 [21]): 68% |
| O=C1C(=O)N(CCn2cc(CN3C(=O)C(=O)c4cc(Cl)ccc43)nn2)c2ccccc21 | Dose-dependent effect | < 1 µM | 2 | 24% | 99% | 94% | 100% | 100% | Dose-dependent effect | > 100 µM | 90% | 6% | 100% | Dose-dependent effect | < 1 µM | 80% | 38% | 100% | 98% | Dose-dependent effect | IC50 (A549 [17]): < 1 µM |
